The target of this experiment is T1, recombinant human pancreatic GLK (Homo sapiens, UniProt P35557).
T1 sequence (P35557 1-465): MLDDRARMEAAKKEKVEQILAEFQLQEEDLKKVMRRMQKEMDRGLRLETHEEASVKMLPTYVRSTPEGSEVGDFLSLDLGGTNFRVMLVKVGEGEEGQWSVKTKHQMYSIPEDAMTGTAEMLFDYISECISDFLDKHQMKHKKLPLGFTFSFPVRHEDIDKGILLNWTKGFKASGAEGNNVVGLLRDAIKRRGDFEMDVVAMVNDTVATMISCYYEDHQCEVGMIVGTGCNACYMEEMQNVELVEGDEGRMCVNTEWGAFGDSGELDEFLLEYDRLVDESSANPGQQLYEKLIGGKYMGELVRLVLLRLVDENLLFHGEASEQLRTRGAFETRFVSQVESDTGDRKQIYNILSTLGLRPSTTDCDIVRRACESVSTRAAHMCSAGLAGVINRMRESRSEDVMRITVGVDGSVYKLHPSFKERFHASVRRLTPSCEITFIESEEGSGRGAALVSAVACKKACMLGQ
The experiment is described as follows: biochemical.

Experimental findings from patent publication US20110059941A1, “2-PHENYL SUBSTITUTED IMIDAZOL [4,5B] PYRIDINE/PYRAZINE AND PURINE DERIVATIVES AS GLUCOKINASE MODULATORS” (priority 2005, published 2011) are described below.

SMILES strings stand for the structures.

Take `COC[C@H](C)Oc1cc(OCc2ccccc2)cc(-c2nc3cccnc3[nH]2)c1` [Example 1, 2-{3-(Benzyloxy)-5-[(1S)-2-methoxy-1-methylethoxy]phenyl}-3H-imidazo[4,5-b]pyridine]: the EC50 was determined as 0.6 µM.

By EC50 is commonly meant the concentration needed to bring the measured effect to its halfway point.
